# Earlier results in US9592310B1 (priority 2004, dated 2017).
smiles,measurement,value
[O][Cl+][O-] [Chlorine dioxide],concentration at which chlorine dioxide is stable in water and aqueous solutions,approximately 10 grams per Liter
